One assay addresses JAK3 (Homo sapiens (Human), UniProt P52333). Nature of the assay: Jak Biochemical HTRF Assay (JAK3). The note with it: recombinant GST-tagged catalytic domain, [ATP] 2.9 μM. As for the experimental part:
(§1) Biological Assays Jak Biochemical HTRF Assay Protocol
The ability of compounds to inhibit the activity of JAK1, JAK2, JAK3, and Tyk2 was measured using a recombinant purified GST-tagged catalytic domain for each enzyme (Invitrogen JAK1 #M4290, JAK2 #M4290, JAK3 #M4290, Tyk2 #M4290) in an HTRF format biochemical assay. […] Subsequent reagent additions employed an Agilent Bravo. […] After equilibration, 2 μL of 10×ATP in 1× assay buffer was added to initiate the kinase reaction and the plates were shaken and then incubated at room temperature for 120 minutes. At the end of the incubation, 20 μL of 2× stop buffer (streptavidin-Dylight 650 (Thermo #84547B100 mL), Eu-tagged pY20 antibody (Perkin Elmer #AD0067), EDTA, HEPES, and Triton) was added to quench the reaction. […] After normalization to untreated controls, the percent inhibition of the HTRF signal at each compound concentration was calculated. The plot of percent inhibition versus the log of compound concentration was fit with a 4-parameter dose response equation to calculate IC50 values.
A general note: Time-resolved FRET reads energy transfer from a long-lived donor to a nearby acceptor.

The target in the next assay is JAK2 (Homo sapiens (Human), UniProt O60674). Nature of the assay: Jak Biochemical HTRF Assay (JAK2). The conditions noted are these: recombinant GST-tagged catalytic domain, [ATP] 8.5 μM. As for the experimental part: as §1
The ability of compounds to inhibit the activity of JAK1, JAK2, JAK3, and Tyk2 was measured using a recombinant purified GST-tagged catalytic domain for each enzyme (Invitrogen JAK1 #M4290, JAK2 #M4290, JAK3 #M4290, Tyk2 #M4290) in an HTRF format biochemical assay. […] The basic assay protocol is as follows: First, 250 nL of diluted compounds in DMSO were dispensed into the wells of a dry 384-well Black plate (Greiner #781076) using a Labcyte Echo 555 acoustic dispenser. Subsequent reagent additions employed an Agilent Bravo. Next, 18 μL of 1.11× enzyme and 1.11× substrate in 1× assay buffer (Invitrogen kinase buffer # PV3189, 2 mM DTT, 0.05% BSA) were added to the wells and shaken and then preincubated for 30 minutes at room temperature to allow compound binding to equilibrate. After equilibration, 2 μL of 10×ATP in 1× assay buffer was added to initiate the kinase reaction and the plates were shaken and then incubated at room temperature for 120 minutes. At the end of the incubation, 20 μL of 2× stop buffer (streptavidin-Dylight 650 (Thermo #84547B100 mL), Eu-tagged pY20 antibody (Perkin Elmer #AD0067), EDTA, HEPES, and Triton) was added to quench the reaction. Plates were shaken and centrifuged and then incubated 60 minutes at room temperature and then read on a Perkin Elmer Envision (λex=337 nm, λem=665 and 615 nm, TRF delay time=20 μs). HTRF signal=10,000*665 nm reading 615 nm reading. After normalization to untreated controls, the percent inhibition of the HTRF signal at each compound concentration was calculated. The plot of percent inhibition versus the log of compound concentration was fit with a 4-parameter dose response equation to calculate IC50 values.

The values below come from US8993756B2 (Merck Sharp & Dohme Corp., priority 2011, dated 2015).

Each structure is given as a SMILES string.

Usually IC50 stands for the point on the concentration scale where inhibition reaches its midpoint.

Sequence of JAK2 (O60674 849-1124): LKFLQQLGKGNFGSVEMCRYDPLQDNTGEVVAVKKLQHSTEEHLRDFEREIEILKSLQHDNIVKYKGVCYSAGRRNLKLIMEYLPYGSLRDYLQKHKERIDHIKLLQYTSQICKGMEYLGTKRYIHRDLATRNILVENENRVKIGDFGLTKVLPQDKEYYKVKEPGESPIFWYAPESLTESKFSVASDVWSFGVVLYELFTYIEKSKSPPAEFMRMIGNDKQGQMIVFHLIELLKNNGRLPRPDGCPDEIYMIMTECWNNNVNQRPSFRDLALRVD
Sequence of JAK3 (P52333 822-1111): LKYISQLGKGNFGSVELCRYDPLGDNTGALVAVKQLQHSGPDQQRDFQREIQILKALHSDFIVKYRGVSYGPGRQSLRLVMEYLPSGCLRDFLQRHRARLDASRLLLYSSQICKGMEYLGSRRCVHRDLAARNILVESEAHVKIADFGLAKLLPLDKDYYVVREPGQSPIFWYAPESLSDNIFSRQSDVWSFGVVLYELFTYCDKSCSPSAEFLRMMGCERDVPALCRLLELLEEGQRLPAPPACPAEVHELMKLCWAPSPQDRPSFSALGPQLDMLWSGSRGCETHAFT

Turning to `CCOC(=O)c1c[nH]c2ncnc(-c3ccccc3)c12` [Example 1-1, Ethyl 4-phenyl-7H-pyrrolo[2,3-d]pyrimidine-5-carboxylate], the IC50 came to 5.5 nM at JAK3 and 91 nM on JAK2.
Consider `CCOC(=O)c1c[nH]c2ncnc(-c3ccc(Cl)cc3)c12` [Example 1-2, Ethyl 4-(4-chlorophenyl)-7H-pyrrolo[2,3-d]pyrimidine-5-carboxylate], for which the IC50 at JAK3 (given as range class) and on JAK2 (given as range class) was 10 to 500 nM each time.
Turning to `CCOC(=O)c1c[nH]c2ncnc(-c3cccc(N)c3)c12` [Example 1-3, Ethyl 4-(3-aminophenyl)-7H-pyrrolo[2,3-d]pyrimidine-5-carboxylate], the IC50 at JAK3 (given as range class) is 10 to 500 nM; on JAK2 (given as range class), greater than 500 nM.
In the same order, the values of `CCOC(=O)c1c[nH]c2ncnc(-c3cc(N)nc(OC)c3)c12` [Example 1-4] are 10 to 500 nM and greater than 500 nM.
`CCOC(=O)c1c[nH]c2ncnc(-c3ccc4cn(C)nc4c3)c12` [Example 1-5, ethyl 4-(2-methyl-2H-indazol-6-yl)-7H-pyrrolo[2,3-d]pyrimidine-5-carboxylate]: the IC50 at JAK3 stood at 7.2 nM; at JAK2 it was 273 nM.
With `CCOC(=O)c1c[nH]c2ncnc(-c3cccc(C#N)c3)c12` [Example 1-6, ethyl 4-(3-cyanophenyl)-7H-pyrrolo[2,3-d]pyrimidine-5-carboxylate], the IC50 on JAK3 (given as range class) and at JAK2 (given as range class) was 10 to 500 nM throughout.
`CCOC(=O)c1c[nH]c2ncnc(-c3ccc(C(N)=O)cc3)c12` [Example 1-7, ethyl 4-(4-carbamoylphenyl)-7H-pyrrolo[2,3-d]pyrimidine-5-carboxylate]: the IC50 is 10 to 500 nM on JAK3 (given as range class) and greater than 500 nM on JAK2 (given as range class).
For `CCOC(=O)c1c[nH]c2ncnc(-c3cccc(C(=O)OC)c3)c12` [Example 1-8, ethyl 4-[3-(methoxycarbonyl)phenyl]-7H-pyrrolo[2,3-d]pyrimidine-5-carboxylate], the IC50 at JAK3 (given as range class) was 10 to 500 nM; at JAK2 (given as range class), greater than 500 nM.
The corresponding values for `CCOC(=O)c1c[nH]c2ncnc(-c3ccc(C(=O)OC)cc3)c12` [Example 1-9, ethyl 4-[4-(methoxycarbonyl)phenyl]-7H-pyrrolo[2,3-d]pyrimidine-5-carboxylate] are 10 to 500 nM and greater than 500 nM.
For the compound `CCOC(=O)c1c[nH]c2ncnc(-c3ccc(C#N)cc3)c12` [Example 1-10, ethyl 4-(4-cyanophenyl)-7H-pyrrolo[2,3-d]pyrimidine-5-carboxylate], the IC50 at JAK3 (given as range class) is 10 to 500 nM; on JAK2 (given as range class), greater than 500 nM.
Turning to `CCOC(=O)c1c[nH]c2ncnc(-c3ccc(S(C)(=O)=O)cc3)c12` [Example 1-11, ethyl 4-[4-(methylsulfonyl)phenyl]-7H-pyrrolo[2,3-d]pyrimidine-5-carboxylate], the IC50 at JAK3 (given as range class) was 10 to 500 nM; at JAK2 (given as range class) it was greater than 500 nM.
For `CCOC(=O)c1c[nH]c2ncnc(-c3cccc(C(N)=O)c3)c12` [Example 1-12, ethyl 4-(3-carbamoylphenyl)-7H-pyrrolo[2,3-d]pyrimidine-5-carboxylate], the IC50 on JAK3 (given as range class) is 10 to 500 nM; on JAK2 (given as range class) it was greater than 500 nM.
Take `CCOC(=O)c1c[nH]c2ncnc(-c3ccc4c(F)n(C)nc4c3)c12` [Example 1-29, ethyl 4-(3-fluoro-2-methyl-2H-indazol-6-yl)-7H-pyrrolo[2,3-d]pyrimidine-5-carboxylate]: the IC50 at JAK3 was 8.1 nM.
Turning to `CCOC(=O)c1c[nH]c2ncnc(-c3ccc(CO)c(N)c3)c12` [Example 1-32, ethyl 4-[3-amino-4-(hydroxymethyl)phenyl]-7H-pyrrolo[2,3-d]pyrimidine-5-carboxylate], the IC50 at JAK3 stood at 8.3 nM.
Turning to `CCOC(=O)c1c[nH]c2ncnc(-c3cccc(Cl)c3)c12` [Example 1-39, ethyl 4-(3-chlorophenyl)-7H-pyrrolo[2,3-d]pyrimidine-5-carboxylate], the IC50 at JAK3 turned out to be 8.4 nM.
`CCOC(=O)c1c[nH]c2ncnc(-c3cccc(OCc4ccccc4)c3)c12` [Example 1-52, ethyl 4-[3-(benzyloxy)phenyl]-7H-pyrrolo[2,3-d]pyrimidine-5-carboxylate]: the IC50 at JAK3 is 3.3 nM.
